Laboratory results taken from ChEMBL document CHEMBL5120927, “LEGO-Lipophosphonoxins: A Novel Approach in Designing Membrane Targeting Antimicrobials” (J Med Chem, 2022).

test system: Escherichia coli; assay: Antibacterial activity against multidrug-resistant Escherichia coli CE5556 expressing CTX-M-15 assessed as reduction in microbial growth incubated for 24 hrs by microdilution assay; type: functional; conditions: not given

Row | Compound | MIC [µg/mL]
1 | CCCC/C=C\CCOP(=O)(CCN(CCN)CCN)OCCCCCCOP(=O)(CCN(CCN)CCN)OCC/C=C\CCCC.Cl.Cl.Cl.Cl.Cl.Cl (centres undefined) | 2
2 | Cl.Cl.Cl.Cl.Cl.Cl.NCCCN(CCCN)CCP(=O)(OCCCCCCCCCCOP(=O)(CCN(CCCN)CCCN)OCCc1ccccc1)OCCc1ccccc1 (centres undefined) | 64
3 | CCCCC/C=C\CCOP(=O)(CCN(CCCNC(=N)N)CCCNC(=N)N)OCCCCCOP(=O)(CCN(CCCNC(=N)N)CCCNC(=N)N)OCC/C=C\CCCCC.Cl.Cl.Cl.Cl.Cl.Cl (centres undefined) | 1

test system: Pseudomonas aeruginosa; assay: Antibacterial activity against multidrug-resistant Pseudomonas aeruginosa assessed as reduction in microbial growth incubated for 24 hrs by microdilution assay; type: functional; conditions: not given

Row | Compound | MIC [µg/mL]
4 | CCCC/C=C\CCOP(=O)(CCN(CCN)CCN)OCCCCCCOP(=O)(CCN(CCN)CCN)OCC/C=C\CCCC.Cl.Cl.Cl.Cl.Cl.Cl (centres undefined) | 8
5 | Cl.Cl.Cl.Cl.Cl.Cl.NCCCN(CCCN)CCP(=O)(OCCCCCCCCCCOP(=O)(CCN(CCCN)CCCN)OCCc1ccccc1)OCCc1ccccc1 (centres undefined) | 64
6 | CCCCC/C=C\CCOP(=O)(CCN(CCCNC(=N)N)CCCNC(=N)N)OCCCCCOP(=O)(CCN(CCCNC(=N)N)CCCNC(=N)N)OCC/C=C\CCCCC.Cl.Cl.Cl.Cl.Cl.Cl (centres undefined) | 8

test system: Staphylococcus aureus; assay: Antibacterial activity against Staphylococcus aureus ATCC 29213 = CCM 4223 assessed as inhibition of bacterial growth incubated for 24 hrs in presence of BSA by microdilution assay; type: functional; conditions: not given

Row | Compound | MIC [µg/mL]
7 | CCCC/C=C\CCOP(=O)(CCN(CCN)CCN)OCCCCCCOP(=O)(CCN(CCN)CCN)OCC/C=C\CCCC.Cl.Cl.Cl.Cl.Cl.Cl (centres undefined) | 2
8 | Cl.Cl.Cl.Cl.Cl.Cl.NCCCN(CCCN)CCP(=O)(OCCCCCCCCCCOP(=O)(CCN(CCCN)CCCN)OCCc1ccccc1)OCCc1ccccc1 (centres undefined) | 4
9 | CCCCC/C=C\CCOP(=O)(CCN(CCCNC(=N)N)CCCNC(=N)N)OCCCCCOP(=O)(CCN(CCCNC(=N)N)CCCNC(=N)N)OCC/C=C\CCCCC.Cl.Cl.Cl.Cl.Cl.Cl (centres undefined) | 1

test system: Enterococcus faecium; assay: Antibacterial activity against vancomycin resistant Enterococcus faecium 419/ANA assessed as reduction in microbial growth incubated for 24 hrs by microdilution assay; type: functional; conditions: not given

Row | Compound | MIC [µg/mL]
10 | CCCC/C=C\CCOP(=O)(CCN(CCN)CCN)OCCCCCCOP(=O)(CCN(CCN)CCN)OCC/C=C\CCCC.Cl.Cl.Cl.Cl.Cl.Cl (centres undefined) | 32
11 | Cl.Cl.Cl.Cl.Cl.Cl.NCCCN(CCCN)CCP(=O)(OCCCCCCCCCCOP(=O)(CCN(CCCN)CCCN)OCCc1ccccc1)OCCc1ccccc1 (centres undefined) | 128
12 | CCCCC/C=C\CCOP(=O)(CCN(CCCNC(=N)N)CCCNC(=N)N)OCCCCCOP(=O)(CCN(CCCNC(=N)N)CCCNC(=N)N)OCC/C=C\CCCCC.Cl.Cl.Cl.Cl.Cl.Cl (centres undefined) | 8

test system: Escherichia coli; assay: Antibacterial activity against Escherichia coli ATCC 25922 = CCM 3954 assessed as inhibition of bacterial growth incubated for 24 hrs by microdilution assay; type: functional; conditions: not given

Row | Compound | MIC [µg/mL]
13 | CCCC/C=C\CCOP(=O)(CCN(CCN)CCN)OCCCCCCOP(=O)(CCN(CCN)CCN)OCC/C=C\CCCC.Cl.Cl.Cl.Cl.Cl.Cl (centres undefined) | 1
14 | Cl.Cl.Cl.Cl.Cl.Cl.NCCCN(CCCN)CCP(=O)(OCCCCCCCCCCOP(=O)(CCN(CCCN)CCCN)OCCc1ccccc1)OCCc1ccccc1 (centres undefined) | 16
15 | CCCCC/C=C\CCOP(=O)(CCN(CCCNC(=N)N)CCCNC(=N)N)OCCCCCOP(=O)(CCN(CCCNC(=N)N)CCCNC(=N)N)OCC/C=C\CCCCC.Cl.Cl.Cl.Cl.Cl.Cl (centres undefined) | 1

test system: Pseudomonas aeruginosa; assay: Antibacterial activity against Pseudomonas aeruginosa ATCC 27853 = CCM 3955 assessed as inhibition of bacterial growth incubated for 24 hrs by microdilution assay; type: functional; conditions: not given

Row | Compound | MIC [µg/mL]
16 | CCCC/C=C\CCOP(=O)(CCN(CCN)CCN)OCCCCCCOP(=O)(CCN(CCN)CCN)OCC/C=C\CCCC.Cl.Cl.Cl.Cl.Cl.Cl (centres undefined) | 16
17 | Cl.Cl.Cl.Cl.Cl.Cl.NCCCN(CCCN)CCP(=O)(OCCCCCCCCCCOP(=O)(CCN(CCCN)CCCN)OCCc1ccccc1)OCCc1ccccc1 (centres undefined) | 64
18 | CCCCC/C=C\CCOP(=O)(CCN(CCCNC(=N)N)CCCNC(=N)N)OCCCCCOP(=O)(CCN(CCCNC(=N)N)CCCNC(=N)N)OCC/C=C\CCCCC.Cl.Cl.Cl.Cl.Cl.Cl (centres undefined) | 8

test system: Staphylococcus aureus; assay: Antibacterial activity against Staphylococcus aureus ATCC 29213 = CCM 4223 assessed as inhibition of bacterial growth incubated for 24 hrs by microdilution assay; type: functional; conditions: not given

Row | Compound | MIC [µg/mL]
19 | CCCC/C=C\CCOP(=O)(CCN(CCN)CCN)OCCCCCCOP(=O)(CCN(CCN)CCN)OCC/C=C\CCCC.Cl.Cl.Cl.Cl.Cl.Cl (centres undefined) | 1
20 | Cl.Cl.Cl.Cl.Cl.Cl.NCCCN(CCCN)CCP(=O)(OCCCCCCCCCCOP(=O)(CCN(CCCN)CCCN)OCCc1ccccc1)OCCc1ccccc1 (centres undefined) | 2
21 | CCCCC/C=C\CCOP(=O)(CCN(CCCNC(=N)N)CCCNC(=N)N)OCCCCCOP(=O)(CCN(CCCNC(=N)N)CCCNC(=N)N)OCC/C=C\CCCCC.Cl.Cl.Cl.Cl.Cl.Cl (centres undefined) | 1

test system: not listed separately; assay: Gradient chromatographic hydrophobicity index of the compound at pH 3.7 by HPLC analysis; type: ADME; conditions: not given

Row | Compound | CHI
22 | CCCC/C=C\CCOP(=O)(CCN(CCN)CCN)OCCCCCCOP(=O)(CCN(CCN)CCN)OCC/C=C\CCCC.Cl.Cl.Cl.Cl.Cl.Cl (centres undefined) | 40.1
23 | Cl.Cl.Cl.Cl.Cl.Cl.NCCCN(CCCN)CCP(=O)(OCCCCCCCCCCOP(=O)(CCN(CCCN)CCCN)OCCc1ccccc1)OCCc1ccccc1 (centres undefined) | 31.1
24 | CCCCC/C=C\CCOP(=O)(CCN(CCCNC(=N)N)CCCNC(=N)N)OCCCCCOP(=O)(CCN(CCCNC(=N)N)CCCNC(=N)N)OCC/C=C\CCCCC.Cl.Cl.Cl.Cl.Cl.Cl (centres undefined) | 36.4

test system: Staphylococcus epidermidis; assay: Antibacterial activity against Staphylococcus epidermidis CCM 7221 assessed as inhibition of bacterial growth incubated for 24 hrs by microdilution assay; type: functional; conditions: not given

Row | Compound | MIC [µg/mL]
25 | CCCC/C=C\CCOP(=O)(CCN(CCN)CCN)OCCCCCCOP(=O)(CCN(CCN)CCN)OCC/C=C\CCCC.Cl.Cl.Cl.Cl.Cl.Cl (centres undefined) | 0.5
26 | Cl.Cl.Cl.Cl.Cl.Cl.NCCCN(CCCN)CCP(=O)(OCCCCCCCCCCOP(=O)(CCN(CCCN)CCCN)OCCc1ccccc1)OCCc1ccccc1 (centres undefined) | 1
27 | CCCCC/C=C\CCOP(=O)(CCN(CCCNC(=N)N)CCCNC(=N)N)OCCCCCOP(=O)(CCN(CCCNC(=N)N)CCCNC(=N)N)OCC/C=C\CCCCC.Cl.Cl.Cl.Cl.Cl.Cl (centres undefined) | 1

test system: Staphylococcus aureus; assay: Antibacterial activity against methicillin resistant Staphylococcus aureus 4591/A assessed as reduction in microbial growth incubated for 24 hrs by microdilution assay; type: functional; conditions: not given

Row | Compound | MIC [µg/mL]
28 | CCCC/C=C\CCOP(=O)(CCN(CCN)CCN)OCCCCCCOP(=O)(CCN(CCN)CCN)OCC/C=C\CCCC.Cl.Cl.Cl.Cl.Cl.Cl (centres undefined) | 1
29 | Cl.Cl.Cl.Cl.Cl.Cl.NCCCN(CCCN)CCP(=O)(OCCCCCCCCCCOP(=O)(CCN(CCCN)CCCN)OCCc1ccccc1)OCCc1ccccc1 (centres undefined) | 2
30 | CCCCC/C=C\CCOP(=O)(CCN(CCCNC(=N)N)CCCNC(=N)N)OCCCCCOP(=O)(CCN(CCCNC(=N)N)CCCNC(=N)N)OCC/C=C\CCCCC.Cl.Cl.Cl.Cl.Cl.Cl (centres undefined) | 1

test system: Escherichia coli; assay: Antibacterial activity against Escherichia coli ATCC 25922 = CCM 3954 assessed as inhibition of bacterial growth incubated for 24 hrs in presence of BSA by microdilution assay; type: functional; conditions: not given

Row | Compound | MIC [µg/mL]
31 | CCCC/C=C\CCOP(=O)(CCN(CCN)CCN)OCCCCCCOP(=O)(CCN(CCN)CCN)OCC/C=C\CCCC.Cl.Cl.Cl.Cl.Cl.Cl (centres undefined) | 2
32 | Cl.Cl.Cl.Cl.Cl.Cl.NCCCN(CCCN)CCP(=O)(OCCCCCCCCCCOP(=O)(CCN(CCCN)CCCN)OCCc1ccccc1)OCCc1ccccc1 (centres undefined) | 32
33 | CCCCC/C=C\CCOP(=O)(CCN(CCCNC(=N)N)CCCNC(=N)N)OCCCCCOP(=O)(CCN(CCCNC(=N)N)CCCNC(=N)N)OCC/C=C\CCCCC.Cl.Cl.Cl.Cl.Cl.Cl (centres undefined) | 1

test system: Enterococcus faecalis; assay: Antibacterial activity against Enterococcus faecalis ATCC 29212 = CCM 4224 assessed as inhibition of bacterial growth incubated for 24 hrs by microdilution assay; type: functional; conditions: not given

Row | Compound | MIC [µg/mL]
34 | CCCC/C=C\CCOP(=O)(CCN(CCN)CCN)OCCCCCCOP(=O)(CCN(CCN)CCN)OCC/C=C\CCCC.Cl.Cl.Cl.Cl.Cl.Cl (centres undefined) | 4
35 | Cl.Cl.Cl.Cl.Cl.Cl.NCCCN(CCCN)CCP(=O)(OCCCCCCCCCCOP(=O)(CCN(CCCN)CCCN)OCCc1ccccc1)OCCc1ccccc1 (centres undefined) | 32
36 | CCCCC/C=C\CCOP(=O)(CCN(CCCNC(=N)N)CCCNC(=N)N)OCCCCCOP(=O)(CCN(CCCNC(=N)N)CCCNC(=N)N)OCC/C=C\CCCCC.Cl.Cl.Cl.Cl.Cl.Cl (centres undefined) | 4

test system: not listed separately; assay: Hemolytic activity in human RBC assessed as haemoglobin release measured after 3 hr; type: toxicity, cell-based, Erythrocyte; conditions: red blood cells (erythrocytes)

Row | Compound | HC50 at 3 h [µg/mL]
37 | CCCC/C=C\CCOP(=O)(CCN(CCN)CCN)OCCCCCCOP(=O)(CCN(CCN)CCN)OCC/C=C\CCCC.Cl.Cl.Cl.Cl.Cl.Cl (centres undefined) | 254
38 | Cl.Cl.Cl.Cl.Cl.Cl.NCCCN(CCCN)CCP(=O)(OCCCCCCCCCCOP(=O)(CCN(CCCN)CCCN)OCCc1ccccc1)OCCc1ccccc1 (centres undefined) | > 500
39 | CCCCC/C=C\CCOP(=O)(CCN(CCCNC(=N)N)CCCNC(=N)N)OCCCCCOP(=O)(CCN(CCCNC(=N)N)CCCNC(=N)N)OCC/C=C\CCCCC.Cl.Cl.Cl.Cl.Cl.Cl (centres undefined) | 121
